According to patent publication EP4624472A1, “DEGRADER INCLUDING NOVEL C-MET PROTEIN LIGAND AND PHARMACEUTICAL COMPOSITION INCLUDING SAME” (Innocure Therapeutics, Inc., priority 2022, dated 2024):

What was measured:
c-MET [1] = target: T1, c-MET (Homo sapiens, UniProt P08581); assay: c-MET protein degradation (Simple Western) in EBC-1 cells; format: cell-based; set-up: To evaluate the degradation efficacy of the compounds of the present invention for c-MET expressed in cells; endogenous in cells; host or cells: EBC-1 (human lung cancer cell line); details: EBC-1, lung cancer cell line treated 48 hours; c-MET expression normalized to GAPDH, 0.1% DMSO = 100%; read-out: In vitro cell viability assay (nM) EBC-1 DC50
T1 sequence (P08581 25-1390): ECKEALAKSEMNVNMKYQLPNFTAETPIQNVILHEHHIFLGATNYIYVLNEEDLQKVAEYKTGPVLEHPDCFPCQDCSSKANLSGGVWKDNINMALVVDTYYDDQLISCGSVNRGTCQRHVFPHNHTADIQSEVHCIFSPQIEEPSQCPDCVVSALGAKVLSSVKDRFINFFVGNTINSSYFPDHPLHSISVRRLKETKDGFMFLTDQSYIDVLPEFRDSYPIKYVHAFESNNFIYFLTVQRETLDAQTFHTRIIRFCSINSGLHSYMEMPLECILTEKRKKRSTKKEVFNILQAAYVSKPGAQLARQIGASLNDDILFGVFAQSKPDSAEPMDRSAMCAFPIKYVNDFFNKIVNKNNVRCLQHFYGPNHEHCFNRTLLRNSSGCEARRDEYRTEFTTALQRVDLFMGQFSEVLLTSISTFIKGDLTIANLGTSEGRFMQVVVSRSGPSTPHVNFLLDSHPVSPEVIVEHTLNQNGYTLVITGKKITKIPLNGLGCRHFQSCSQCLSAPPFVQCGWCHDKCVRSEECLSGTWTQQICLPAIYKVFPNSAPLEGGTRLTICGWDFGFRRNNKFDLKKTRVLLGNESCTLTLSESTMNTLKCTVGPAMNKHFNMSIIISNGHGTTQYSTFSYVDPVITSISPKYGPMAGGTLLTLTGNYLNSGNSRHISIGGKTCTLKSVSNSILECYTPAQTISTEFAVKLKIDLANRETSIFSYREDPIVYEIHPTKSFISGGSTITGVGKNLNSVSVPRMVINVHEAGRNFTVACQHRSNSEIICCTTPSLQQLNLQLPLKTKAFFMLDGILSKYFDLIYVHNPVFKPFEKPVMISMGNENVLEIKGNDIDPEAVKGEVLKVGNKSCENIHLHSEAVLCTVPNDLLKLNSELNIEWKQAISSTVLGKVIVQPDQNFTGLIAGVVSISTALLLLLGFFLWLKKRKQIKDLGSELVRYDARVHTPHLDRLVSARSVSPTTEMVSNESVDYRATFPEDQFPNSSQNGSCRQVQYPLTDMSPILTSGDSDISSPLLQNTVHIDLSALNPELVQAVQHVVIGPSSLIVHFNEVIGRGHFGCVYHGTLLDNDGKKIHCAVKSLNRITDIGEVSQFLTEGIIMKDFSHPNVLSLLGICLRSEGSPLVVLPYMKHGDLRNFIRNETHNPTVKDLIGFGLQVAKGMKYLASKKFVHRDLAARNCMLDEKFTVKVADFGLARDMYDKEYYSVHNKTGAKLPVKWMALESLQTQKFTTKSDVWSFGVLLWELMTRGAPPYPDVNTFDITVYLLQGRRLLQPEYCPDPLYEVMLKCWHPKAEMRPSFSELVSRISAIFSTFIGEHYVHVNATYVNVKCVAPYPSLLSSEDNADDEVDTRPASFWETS
Protocol: (§1) The c-MET overexpressing human gastric cancer cell lines MKN45 and SNU638 were cultured in RPMI medium with 10% fetal bovine serum, penicillin (100 U/ml), and streptomycin ([…]), and the c-MET exon 14 skipping mutant human gastric cancer cell line Hs746T was cultured in DMEM media. The c-MET overexpressing human lung cancer cell line EBC-1 was cultured in MEM media with the addition of 10% fetal bovine serum, penicillin (100U/ml), and streptomycin ([…]). The normal cell line WI-38 derived from human lung tissue was cultured in EMEM medium with the addition of 10% fetal bovine serum, penicillin (100U/ml), and streptomycin ([…]).
(§2) The compound synthesized in accordance with the present invention was prepared with a raw material solution of 10 mM dissolved in DMSO (dimethyl sulfoxide), and was sequentially diluted and processed.
(§3) To evaluate the degradation efficacy of the compounds of the present invention for c-MET expressed in cells, cells were dispensed in a 12-well plate at a concentration of 2 × 10^5 cells/well, and then gastric cancer cell lines were treated with samples for 24 hours and lung cancer cell lines were treated for 48 hours.
(§4) To perform a western blotting assay to confirm protein expression, cells treated with a compound treated with 40 µL of RIPA buffer with a protease inhibitor for 30 minutes, collected cell lysate using a scraper on ice, and centrifuged at 4°C 15,000 rpm for 30 min to obtain a protein-containing supernatant.
(§5) Protein expression was then measured using the Simple Western Automated Western Blot System Abby instrument using 3 µg of protein for each sample. SDS and heat-induced denaturation proteins were separated by molecular weight, attached to the capillary, reacted with anti-c-MET or anti-GAPDH antibodies, which are primary antibodies, and then reacted with HRP-conjugated secondary antibodies, and analyzed the protein expression signal with compass software.
(§6) Protein expression was normalized based on the expression value of GAPDH, and the protein expression amount in each sample was measured as a percentage (%) based on 100% of samples treated with 0.1% DMSO carrier, and DC50 (concentration of a compound where 50% protein inhibition is achieved) was calculated from the change in protein expression amount due to compound treatment.

SNU-638 = assay: In vitro cell viability assay (cancer cell anti-proliferative activity), SNU-638; format: cell-based, human; details: Homo sapiens; SNU-638 cells, treated 72 hours; read-out: In vitro cell viability assay (nM) SNU-638 IC50
Protocol: as §1, §2
(§7) In order to evaluate the inhibitory activity on cell growth, cells were dispensed in a 96-well plate at a concentration of 5,000 cells/well and then treated with the compound of the present invention prepared at various concentrations for 72 hours. The absorbance measurement at 450 nm was calculated using the GraphicPad Prism 8.0 software. The IC50 value (concentration of the compound achieving 50% cytostatic inhibition) is the average value of the measured results. […]

Hs746T = assay: In vitro cell viability assay (cancer cell anti-proliferative activity), Hs746T; format: cell-based; details: Homo sapiens; Hs746T cells, treated 72 hours
Protocol: as §1, §2, §7

c-MET [2] = target: T2, c-MET (Homo sapiens, UniProt P08581, DEL964-1010); assay: c-MET protein degradation (Simple Western) in Hs746T cells; format: cell-based; details: Hs746T (c-MET exon 14 skipping mutant), gastric cancer cell line treated 24 hours; c-MET expression normalized to GAPDH, 0.1% DMSO = 100%; read-out: In vitro cell viability assay (nM) Hs746T DC50
T2 construct: To evaluate the degradation efficacy of the compounds of the present invention for c-MET expressed in cells; endogenous in cells; host or cells: Hs746T (human gastric cancer cell line)
T2 sequence (P08581 with tags, fused parts or gaps DEL964-1010 limits assumed): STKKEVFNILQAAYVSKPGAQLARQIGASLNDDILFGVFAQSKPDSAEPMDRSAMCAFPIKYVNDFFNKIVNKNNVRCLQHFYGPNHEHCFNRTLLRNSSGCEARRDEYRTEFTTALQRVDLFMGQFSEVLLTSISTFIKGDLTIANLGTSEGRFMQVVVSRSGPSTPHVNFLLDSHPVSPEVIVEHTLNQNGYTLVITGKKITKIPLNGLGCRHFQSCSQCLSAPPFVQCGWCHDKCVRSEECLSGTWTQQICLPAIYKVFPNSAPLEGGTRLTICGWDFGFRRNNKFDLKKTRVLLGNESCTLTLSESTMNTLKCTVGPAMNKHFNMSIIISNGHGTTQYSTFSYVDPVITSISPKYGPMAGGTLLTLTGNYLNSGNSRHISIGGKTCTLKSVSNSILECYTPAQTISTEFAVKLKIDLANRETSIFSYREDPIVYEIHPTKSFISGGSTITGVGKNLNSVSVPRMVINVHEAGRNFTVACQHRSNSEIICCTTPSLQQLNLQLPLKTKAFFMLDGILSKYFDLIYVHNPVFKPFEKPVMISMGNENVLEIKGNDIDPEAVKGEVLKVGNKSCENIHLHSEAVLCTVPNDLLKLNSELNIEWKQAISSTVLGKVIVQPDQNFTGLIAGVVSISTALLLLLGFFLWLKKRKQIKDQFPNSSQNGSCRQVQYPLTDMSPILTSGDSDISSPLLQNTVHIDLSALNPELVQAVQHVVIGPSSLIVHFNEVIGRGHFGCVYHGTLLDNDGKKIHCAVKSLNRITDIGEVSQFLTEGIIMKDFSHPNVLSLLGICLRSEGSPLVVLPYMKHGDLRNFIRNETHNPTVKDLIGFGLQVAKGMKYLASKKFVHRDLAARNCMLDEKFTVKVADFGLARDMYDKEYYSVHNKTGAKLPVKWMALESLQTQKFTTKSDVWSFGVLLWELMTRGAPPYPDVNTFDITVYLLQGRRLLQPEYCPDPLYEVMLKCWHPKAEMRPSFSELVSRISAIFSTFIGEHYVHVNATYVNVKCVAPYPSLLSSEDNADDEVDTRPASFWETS
T2 sequence (P08581 25-307 partner limits assumed): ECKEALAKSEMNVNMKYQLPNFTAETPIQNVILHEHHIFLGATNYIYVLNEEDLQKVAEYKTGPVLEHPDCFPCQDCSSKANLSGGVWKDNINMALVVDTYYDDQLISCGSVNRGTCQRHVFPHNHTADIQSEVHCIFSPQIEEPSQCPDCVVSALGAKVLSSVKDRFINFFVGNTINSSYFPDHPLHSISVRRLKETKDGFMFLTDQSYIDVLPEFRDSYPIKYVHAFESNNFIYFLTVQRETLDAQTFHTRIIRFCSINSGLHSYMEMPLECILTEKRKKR
Protocol: as §1, §2, §3, §4, §5, §6

c-MET [3] = target: T1, c-MET; assay: c-MET protein degradation (Simple Western) in SNU-638 cells; format: cell-based; set-up: To evaluate the degradation efficacy of the compounds of the present invention for c-MET expressed in cells; endogenous in cells; details: SNU-638, gastric cancer cell line treated 24 hours; c-MET expression normalized to GAPDH, 0.1% DMSO = 100%; read-out: In vitro cell viability assay (nM) SNU-638 DC50
Protocol: as §1, §2, §3, §4, §5, §6

EBC-1 = assay: In vitro cell viability assay (cancer cell anti-proliferative activity), EBC-1; format: cell-based, human; details: Homo sapiens; EBC-1 cells, treated 72 hours; read-out: In vitro cell viability assay (nM) EBC-1 IC50
Protocol: as §1, §2, §7

Compound | DC50 (c-MET [1]) [nM] | IC50 (SNU-638) [nM] | IC50 (Hs746T) [nM] | DC50 (c-MET [2]) [nM] | DC50 (c-MET [3]) [nM] | IC50 (EBC-1) [nM]
Cn1cc(-c2cnc3c(nnn3C[C@@H]3CN(c4ncc(N5CC(CN6CCN(c7ccc8c(=O)n(C9CCC(=O)NC9=O)ncc8c7)CC6)C5)cn4)CCO3)n2)cn1 (stereo partly drawn) [Example D-1, 3-(6-(4-((1-(2-((S)-2-((5-(1-methyl-1H-pyrazole-4-yl)-1H-[1,2,3]triazolo[4,5-b]pyrazine-1-yl)methyl)morpholine-5-il)azetidin-3-il)methyl)piperazine-1-il)piperazine-1-il)1-oxopthalazine-2(1H)-day)piperidine-2,6-dione] | ≤ 100 | ≤ 100 | ≤ 100 | ≤ 100 | > 1000 | ≤ 100
Cc1nn(C2CCC(=O)NC2=O)c(=O)c2ccc(N3CCN(CC4CCN(CC5CN(c6cnc(N7CCO[C@H](Cn8nnc9nc(-c%10cnn(C)c%10)cnc98)C7)nc6)C5)CC4)CC3)cc12 (stereo partly drawn) [Example D-4] | ≤ 100 | ≤ 100 | ≤ 100 | ≤ 100 | ≤ 1000 | ≤ 100
Cn1cc(-c2cnc3c(nnn3C[C@@H]3CN(c4ncc(N5CC(CN6CCN(CC7CCN(c8ccc(NC9CCC(=O)NC9=O)cc8F)CC7)CC6)C5)cn4)CCO3)n2)cn1 (stereo partly drawn) [Example D-5] | > 1000 | ≤ 100 | > 1000 | > 1000 | > 1000 | ≤ 100
Cc1nn(C2CCC(=O)NC2=O)c(=O)c2ccc(N3CCO[C@@H](COc4cnc(-c5cccc(Cn6nc(-c7cccc(C#N)c7)ccc6=O)c5)nc4)C3)cc12 (stereo partly shown) [Example E-1] | ≤ 100 | ≤ 100 | ≤ 100 | ≤ 100 | > 1000 | ≤ 100
N#Cc1cccc(-c2ccc(=O)n(Cc3cccc(-c4ncc(OC[C@H]5CN(c6ccc7c(=O)n(C8CCC(=O)NC8=O)ncc7c6)CCO5)cn4)c3)n2)c1 (stereo partly drawn) [Example E-2, 3-(1-(3-(5-(((2R)-4-(2-(2,6-dioxopiperidin-3-yl)-1-oxo-1,2-dihydrophthalazine-6-yl)morpholine-2-yl)methoxy)pyrimidin-2-yl)benzyl)6-oxo-1,6-dihydropyridazine-3-il)benzonitrile] | ≤ 100 | – | ≤ 100 | ≤ 100 | – | ≤ 100
N#Cc1cccc(-c2ccc(=O)n(Cc3cccc(-c4ncc(OC[C@@H]5CN(c6ccc(NC7CCC(=O)NC7=O)cc6F)CCO5)cn4)c3)n2)c1 (stereo partly drawn) [Example E-3, 3-(1-(3-(5-(((2R)-4-(4-((2,6-dioxopiperidin-3-yl)amino)-2-fluorophenyl)morpholine-2-yl)methoxy)pyrimidine-2-yl)benzyl)6-oxo-1,6-dihydropyridazine-3-il)benzonitrile] | > 1000 | ≤ 100 | – | – | > 1000 | ≤ 100
N#Cc1cccc(-c2ccc(=O)n(Cc3cccc(-c4ncc(OCCN5CCN(c6ccc7c(=O)n(C8CCC(=O)NC8=O)ncc7c6)CC5)cn4)c3)n2)c1 (stereo not shown) [Example E-4] | ≤ 100 | ≤ 100 | ≤ 100 | ≤ 100 | > 1000 | ≤ 100
Cc1nn(C2CCC(=O)NC2=O)c(=O)c2ccc(N3CCN(CCOc4cnc(-c5cccc(Cn6nc(-c7cccc(C#N)c7)ccc6=O)c5)nc4)CC3)cc12 (stereo not shown) [Example E-5] | ≤ 100 | ≤ 100 | ≤ 100 | ≤ 100 | ≤ 100 | ≤ 100
N#Cc1cccc(-c2ccc(=O)n(Cc3cccc(-c4ncc(OCCN5CCN(c6ccc(NC7CCC(=O)NC7=O)cc6F)CC5)cn4)c3)n2)c1 (stereo not shown) [Example E-6, 3-(1-(3-(5-(2-(4-(4-((2,6-dioxopiperidin-3-yl)amino)2-fluorophenyl)piperazine-1-yl)ethoxy)pyrimidine-2-yl)benzyl)6-oxo-1,6-dihydropyridazine-3-yl)benzonitrile] | > 1000 | ≤ 100 | – | – | > 1000 | ≤ 100
N#Cc1cccc(-c2ccc(=O)n(Cc3cccc(-c4ncc(N5CCN(CC6CN(c7ccc(NC8CCC(=O)NC8=O)cc7F)C6)CC5)cn4)c3)n2)c1 (stereo not shown) [Example E-7] | ≤ 100 | ≤ 100 | – | – | ≤ 100 | ≤ 100
N#Cc1cccc(-c2ccc(=O)n(Cc3cccc(-c4ncc(N5CCN(CC6CCN(c7ccc(NC8CCC(=O)NC8=O)cc7F)CC6)CC5)cn4)c3)n2)c1 (stereo not shown) [Example E-8] | ≤ 100 | ≤ 100 | ≤ 100 | ≤ 100 | > 1000 | ≤ 100
